Results from article PMC10609273, “Radiosynthesis and Early Evaluation of a Positron Emission Tomography Imaging Probe [^18F]AGAL Targeting Alpha-Galactosidase A Enzyme for Fabry Disease” (Molecules, 2023).
Where two headings read alike, the source gives them in different places.

Assays:
[1] = target: 167 protein targets (human and rodent recombinant receptors and binding sites); assay: Eurofins SpectrumScreen selectivity panel
Procedure: The AGAL molecule had ≥50% inhibition of specific binding or activity with IC50 values > 10 µM for a range of human and rodent recombinant receptors and binding sites (e.g., calcium and potassium channels and various subtypes of adrenergic, bombesin, calcitonin, serotonin, acetylcholine, histamine, and glutamate receptors or transporters).
The AGAL molecule was tested for estimated inhibition potency (IC50) and/or inhibition constants (Ki) on 167 protein targets (Eurofins SpectrumScreen).

[2] = test system: BCRP; assay: Bidirectional permeability in Caco-2 cells; format: in vitro ADME; conditions: human
Procedure: (§1) The Caco-2 cell culture and bidirectional permeability assays used in the study were adapted from previous studies at Takeda. Briefly, Caco-2 cells were obtained from American Type Culture Collection (ATCC) (Manassas, VA, USA) and were cultured in 175 cm^2 tissue culture T-flasks (Corning Life Sciences, Corning, NY, USA). For bidirectional permeability assays, cells were plated onto Costar 24-well culture plates (0.33 cm^2/well, […] (Corning Life Sciences, Corning, NY, USA) by adding 1 × 10^5 cells suspended in 0.2 mL of culture medium (Dulbecco’s modified Eagle’s medium [DMEM] with 0.1 mM non-essential amino acids, 2 mM L-glutamine, 4.5 g/L glucose, and 10% fetal bovine serum [FBS]) to the upper chamber of each well of the 24-well transwell plate. Cell-free culture medium (40 mL) was added to the lower chamber reservoir (Corning Life Sciences, Corning, NY, USA). The transwell plates were then incubated at 37 °C in an atmosphere of 5% CO2 for 25 days to ensure complete enterocyte-like differentiation of the cells, and the culture medium was changed every three to four days during the incubation period. Cell monolayers with transepithelial electrical resistance (TEER) values > 250 ohms × cm^2 were used for the bidirectional permeability assays.
(§2) All chemicals and reagents including control compounds were purchased from commercial sources such as Sigma-Aldrich or synthesized in house (pevonedistat and LY335979). Bidirectional transport studies were performed at 37 °C. Before each experiment, the confluent cell monolayers on transwell inserts were washed and equilibrated for 30 min with transport media (Hank’s Balanced Salt Solution [HBSS] containing 25 mM 4-(2-hydroxyethyl)-1-piperazineethanesulfonic acid [HEPES] and 10 mM glucose, pH 7.4 or 6.5). The bidirectional permeability of 5 µM of the cyclohexane derivative was assessed alone or in the presence of 5 µM LY335979, 5 µM K0143, or 10 µM Elacridar to inhibit P-gp, BCRP, and both efflux transporters, respectively. Additionally, the bi-directional permeability of 5 µM solutions of nadolol (low permeable control marker), minoxidil (high permeable marker), propranolol (high permeable marker), and pevonedistat (efflux transporter control) was also assessed. The experiment was initiated by adding a solution containing the test compounds and LY335979 to either the apical (for apical-to-basolateral [A-to-B] transport) or basolateral (for basolateral-to-apical [B-to-A] transport) compartment. Lucifer yellow (50 µM) was added to each donor chamber in the experiment to serve as a paracellular transport control and to monitor cell monolayer integrity. The apical volume was 0.2 mL and the basolateral volume was 1.0 mL. Bovine serum albumin (BSA, Sigma Aldrich) (5%) was added to the transport media on the receiver side to prevent non-specific binding of the test compound to the polystyrene well. After the addition of test compound into the donor side, […] of the receiving solution were withdrawn from the receiver side at 30 and 60 min. A […] of fresh transport media was immediately added to the receiver side at 30 and 60 min. The samples were placed into 96-well black plates (PerkinElmer Life Sciences, Boston, MA, USA) for fluorescence measurement (excitation at 450 nm and emission at 535 nm). After this measurement, the amounts of cyclohexane derivative and control compounds in each sample were quantified with liquid chromatography–mass spectrometry (LC–MS). The time course of drug transported across cell monolayers was analyzed to determine the time and rate of steady-state flux. The transport rate (total amount of drug present in the receiver chamber per unit time), Papp, and efflux ratio were calculated as described in Equations (4) and (5). […]

[3] = Bidirectional permeability in Caco-2 cells; format: in vitro ADME; conditions: human, Caco-2, 5 µM, alone
Procedure: as §1, §2

[4] = test system: P-gp and BCRP; assay: Bidirectional permeability in Caco-2 cells; format: in vitro ADME; conditions: human, Caco-2, with Elacridar (GF918) 10 µM, 5 µM, + 10 µM Elacridar (GF918) (dual inhibitor of P-gp and BCRP)
Procedure: as §1, §2

[5] = test system: Caco-2 cells; assay: Bidirectional permeability in Caco-2 cells; format: in vitro ADME
Procedure: as §1, §2

[6] = test system: P-gp; assay: Bidirectional permeability in Caco-2 cells; format: in vitro ADME; conditions: human, Caco-2, with LY335979 5 µM
Procedure: as §1, §2

[7] = Caco-2, with KO143 5 µM, 5 µM, + 5 µM KO143 (BCRP inhibitor)
[8] = read-out: Ratio (B/A), efflux ratio
[9] = 5 µM, + 5 µM LY335979 (P-gp inhibitor)

In the case of `O=C(CCCCCCCn1cc(CCCF)nn1)N1[C@@H]2[C@H](O)[C@@H](O)[C@@H](O)[C@@H](CO)[C@@H]21` [AGAL], the IC50 ([1]; range of human and rodent recombinant receptors and binding sites, read-out: IC50 values for off-target receptors and binding sites) is reported as over 10 µM, the “inhibition of specific binding or activity” value ([1]; selectivity panel, >160 proteins) is reported as at least 50% and the efflux ratio at 60 min, 5 µM ([2]; Caco-2, with K0143 5 µM, by BCRP inhibitor K0143, read-out: reduction of the efflux ratio) is reported as 1.4. It also gave a Papp A→B at 60 min, 5 µM [2, 7] of 0.15 ×10⁻⁶ cm/s, a Papp B→A at 60 min, 5 µM [2, 7] of 1.31 ×10⁻⁶ cm/s and an efflux ratio at 60 min, 5 µM ([2]; Caco-2, with KO143 5 µM, 5 µM, + 5 µM KO143 (BCRP inhibitor), read-out: Ratio (B/A), efflux ratio) of 8.7. The Papp A→B at 60 min, 5 µM [3] was 0.11 ×10⁻⁶ cm/s, the Papp B→A at 60 min, 5 µM [3] was 1.36 ×10⁻⁶ cm/s and the efflux ratio at 60 min, 5 µM [3, 8] was 12. It also gave a Papp A→B at 60 min, 5 µM [4] of 0.25 ×10⁻⁶ cm/s, a Papp B→A at 60 min, 5 µM [4] of 0.74 ×10⁻⁶ cm/s and an efflux ratio at 60 min, 5 µM [4, 8] of 2.9. The “reduction of the efflux ratio” value ([5]; by LY335979) was 67%, the “reduction of the efflux ratio” value ([5]; by elacridar) was 76% and the efflux ratio at 60 min, 5 µM ([6]; by P-gp inhibitor LY335979, read-out: reduction of the efflux ratio) was 3. For the same compound, the Papp A→B at 60 min, 5 µM [6, 9] was 0.25 ×10⁻⁶ cm/s, the Papp B→A at 60 min, 5 µM [6, 9] was 0.95 ×10⁻⁶ cm/s and the efflux ratio at 60 min, 5 µM ([6]; 5 µM, + 5 µM LY335979 (P-gp inhibitor), read-out: Ratio (B/A), efflux ratio) was 3.9.
